The source of these data is patent US20020068759A1, “Medicament” (SmithKline Beecham plc, priority 1990, published 2002).

Where a name gives a salt, the structure may show the parent alone.

Take `CCCCc1ncc(CC(Cc2ccccc2)C(=O)O)n1Cc1ccccc1Cl` (stereo not drawn) (as salt: hydrochloride) [Example 2, 3-[2-n-Butyl-1-{(2-chlorophenyl)methyl}-1H-imidazol-5-yl]-2-benzylpropanoic Acid]: the melting point – broadly, the temperature, or range, at which the solid turns liquid – lay in the range of 118 to 120 °C.
Under `CCCSc1ncc(C[C@H](NC(=O)CCC)C(=O)O)n1Cc1ccccc1Cl` [Example 1, 3-[(2-Chlorophenyl)methyl]-2-propylthio-N-butyrylhistidine] stands 178 to 181 °C.
The same measure for `CCCCc1nc2cc(Br)cc(C(=O)O)c2n1Cc1ccccc1Cl` [Example 4, 5-Bromo-2-n-butyl-1-(2-chlorophenyl)methyl-1H-benzimidazole-7-carboxylic Acid]: 254 to 255 °C.
